Source: patent US20200062773A1, “4,4a,5,7-TETRAHYDRO-3H-FURO[3,4-b]PYRIDINYL COMPOUNDS” (Janssen Pharmaceutlca NV, priority 2016, published 2020)

What was measured:
[1] = target: T1, BACE1 (Homo sapiens, UniProt P56817); assay: BACE1 biochemical FRET based assay; settings: Method 1: recombinant BACE1 1 μg/ml, 120 min at room temperature, pH 5.0; for IC50: read-out: Biochemical FRET based assay pIC50 (converted)
T1 construct: recombinant BACE1 protein in a final concentration of 1 μg/ml
Source text: BACE1 Biochemical Fret Based Assay
(§1) This assay is a Fluorescence Resonance Energy Transfer Assay (FRET) based assay. The substrate for this assay is an APP derived 13 amino acids peptide that contains the ‘Swedish’ Lys-Met/Asn-Leu mutation of the amyloid precursor protein (APP) beta-site APP-cleaving enzyme cleavage site. This substrate also contains two fluorophores: (7-methoxycoumarin-4-yl) acetic acid (Mca) is a fluorescent donor with excitation wavelength at 320 nm and emission at 405 nm and 2,4-Dinitrophenyl (Dnp) is a proprietary quencher acceptor. […] Upon cleavage by BACE1, the fluorophore Mca is separated from the quenching group Dnp, restoring the full fluorescence yield of the donor. The increase in fluorescence is linearly related to the rate of proteolysis.
Briefly in a 384-well format recombinant BACE1 protein in a final concentration of 1 μg/ml is incubated for 120 minutes at room temperature with 10 μm substrate in incubation buffer (40 mM Citrate buffer pH 5.0, 0.04% PEG, 4% DMSO) in the absence or presence of compound. Next the amount of proteolysis is directly measured by fluorescence measurement at T=0 and T=120 (excitation at 320 nm and emission at 405 nm). Results are expressed in RFU (Relative Fluorescence Units), as difference between T120 and T0.
(§2) A best-fit curve is fitted by a minimum sum of squares method to the plot of % Controlmin versus compound concentration. From this an IC50 value (inhibitory concentration causing 50% inhibition of activity) can be obtained.

[2] = tested on: Abeta 1-42 produced and secreted into the medium of human neuroblastoma SKNBE2 cells; assay: Cellular αLisa assay in SKNBE2 cells; assay type: cell-based; settings: human neuroblastoma SKNBE2 cells expressing hAPP695, 18 hours incubation
Protocol: Cellular αLisa Assay in SKNBE2 Cells
In two αLisa assays the levels of Abeta 1-42 produced and secreted into the medium of human neuroblastoma SKNBE2 cells are quantified. The assay is based on the human neuroblastoma SKNBE2 expressing the wild type Amyloid Precursor Protein (hAPP695). The compounds are diluted and added to these cells, incubated for 18 hours and then measurements of Abeta 1-42 are taken. Abeta 1-42 are measured by sandwich αLisa. αLisa is a sandwich assay using biotinylated antibody AbN/25 attached to streptavidin coated beads and antibody cAb42/26 conjugated acceptor beads for the detection of Abeta 1-42 respectively. In the presence of Abeta 1-42, the beads come into close proximity. The excitation of the donor beads provokes the release of singlet oxygen molecules that trigger a cascade of energy transfer in the acceptor beads, resulting in light emission. Light emission is measured after 1 hour incubation (excitation at […] and emission at 615 nm).
as §2

[3] = target: T2, BACE2 (Homo sapiens, UniProt Q9Y5Z0); assay: BACE2 biochemical FRET based assay; settings: recombinant BACE2, 450 minutes at room temperature, pH 5.0; for IC50: read-out: Biochemical FRET based assay pIC50 (converted)
T2 construct: recombinant BACE2 protein in a final concentration of 0.4 μg/ml
T2 sequence (Q9Y5Z0 63-518): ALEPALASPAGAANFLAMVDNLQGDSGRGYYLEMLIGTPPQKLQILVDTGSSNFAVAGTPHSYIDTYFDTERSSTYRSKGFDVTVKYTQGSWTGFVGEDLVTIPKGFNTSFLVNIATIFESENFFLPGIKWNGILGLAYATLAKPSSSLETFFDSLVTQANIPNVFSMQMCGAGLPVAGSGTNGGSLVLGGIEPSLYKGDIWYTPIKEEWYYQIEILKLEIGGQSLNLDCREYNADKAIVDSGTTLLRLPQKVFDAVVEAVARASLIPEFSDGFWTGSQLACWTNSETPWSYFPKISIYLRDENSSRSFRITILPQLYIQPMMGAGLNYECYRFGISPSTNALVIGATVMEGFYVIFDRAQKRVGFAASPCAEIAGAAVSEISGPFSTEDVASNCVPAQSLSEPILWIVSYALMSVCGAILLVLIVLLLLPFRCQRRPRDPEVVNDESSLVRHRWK
Source text: BACE2 Biochemical FRET Based Assay
as §1, with “assay” for “assay is an APP derived 13 amino acids peptide that”, “the beta-site APP-cleaving enzyme,” for “BACE1,”
Briefly in a 384-well format recombinant BACE2 protein in a final concentration of 0.4 μg/ml is incubated for 450 minutes at room temperature with 10 μM substrate in incubation buffer (50 mM Citrate buffer pH 5.0, 0.05% PEG, no DMSO) in the absence or presence of compound. Next the amount of proteolysis is directly measured by fluorescence measurement at T=0 and T=450 (excitation at 320 nm and emission at 405 nm). Results are expressed in RFU (Relative Fluorescence Units), as difference between T450 and T0.
as §2

[4] = tested on: Abeta 1-42 in cerebrospinal fluid (CSF); assay: Pharmacology in the beagle dog: beta-amyloid profile in CSF after a single dose; assay type: in vivo; settings: for % Mean decrease in Abeta 1-42 at 8 h post dosing compared to own baseline / % Mean decrease in Abeta 1-42 at 25 h post dosing compared to own baseline / % Mean decrease in Abeta 1-42 at 49 h post dosing compared to own baseline: beagle dog CSF
Protocol: Pharmacology in the Beagle Dog
(§3) Test compounds were tested to evaluate the effect on the beta-amyloid profile in cerebrospinal fluid (CSF) of dogs after a single dose, in combination with pharmacokinetic (PK) follow up and limited safety evaluation. For each of compound 4b, 3c, 7d, or 14, four beagle dogs (2 males, 2 females) were dosed with vehicle (1 ml/kg of an aqueous solution of 20% cyclodextrin) and 12, 8, 4 and 4 beagle dogs (2 males and 2 females per dosage group), were dosed with test compounds as follows:
(§4) CSF was taken in conscious animals directly from the lateral ventricle via a cannula which was screwed in the skull and covered with subcutaneous tissue and skin, before and at 4, 8, 25 and 49 hours after dosing. Eight hours after dosing the animals got access to their regular meal for 30 minutes. Blood was taken for PK follow up (0.5, 1, 2, 4, 8, 25 and 49 hours) and serum samples for biochemistry were taken before and at 8 and 25 h after dosing. The CSF samples were used for measurement of Abeta 1-42.

[5] = Limited safety evaluation in the beagle dog (observations, serum biochemistry); assay type: in vivo
Protocol: as §3
as §4, with “Blood was taken for PK follow up (0.5, 1, 2, 4, 8, 25 and 49 hours) and serum samples for biochemistry were taken before and at 8 and 25 h after dosing.” left out

T1 sequence (P56817 46-501): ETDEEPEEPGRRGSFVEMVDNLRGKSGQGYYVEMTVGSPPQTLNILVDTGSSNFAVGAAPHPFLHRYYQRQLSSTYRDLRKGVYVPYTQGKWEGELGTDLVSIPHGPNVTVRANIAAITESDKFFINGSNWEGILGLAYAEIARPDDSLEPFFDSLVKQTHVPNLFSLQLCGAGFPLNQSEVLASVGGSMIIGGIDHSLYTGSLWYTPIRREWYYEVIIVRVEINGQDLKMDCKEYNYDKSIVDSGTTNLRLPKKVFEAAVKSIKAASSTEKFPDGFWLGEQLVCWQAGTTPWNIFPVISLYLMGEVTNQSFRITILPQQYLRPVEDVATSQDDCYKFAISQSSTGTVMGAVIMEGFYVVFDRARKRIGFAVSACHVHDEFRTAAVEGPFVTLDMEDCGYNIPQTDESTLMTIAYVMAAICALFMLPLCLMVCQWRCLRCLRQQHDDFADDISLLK

Row | SMILES | Biochemical FRET based assay pIC50 [1] | Cellular αLisa assay in SKNBE2 cells Abeta 42 pIC50 [2] | Biochemical FRET based assay pIC50 [3] | IC50 [1] [nM] | IC50 [3] [nM] | other results
1 | C[C@@]1(C#N)C[C@@H]2[C@@H](C(F)(F)F)OC[C@]2(c2cc(NC(=O)c3cnc(OCF)cn3)ccc2F)N=C1N [7d] | 8.79 | 8.02 | 7.25 | – | – | % Mean decrease in Abeta 1-42 at 8 h post dosing compared to own baseline ([4]; single dose 0.31 mg/kg): 42%; % Mean decrease in Abeta 1-42 at 25 h post dosing compared to own baseline ([4]; single dose 0.31 mg/kg): NR (NR means % decrease < 20); ALT liver enzyme increase ([5]; one female dog, 0.31 mg/kg single dose): 6 fold; Observations ([5]; one female dog, 0.31 mg/kg single dose, 49 h post dosing): slight tremors and head shaking
2 | C[C@H]1OC[C@]2(c3cc(NC(=O)c4ccc(C#N)cn4)ccc3F)N=C(N)[C@](C)(C#N)C[C@H]12 [4b] | 8.73 | 8.9 | 7.84 | – | – | % Mean decrease in Abeta 1-42 at 8 h post dosing compared to own baseline ([4]; single dose 0.16 mg/kg): 42%; % Mean decrease in Abeta 1-42 at 25 h post dosing compared to own baseline ([4]; single dose 0.16 mg/kg): 21%; % Mean decrease in Abeta 1-42 at 49 h post dosing compared to own baseline ([4]; single dose 0.16 mg/kg): NR (NR means % decrease < 20); % Mean decrease in Abeta 1-42 at 8 h post dosing compared to own baseline ([4]; single dose 0.31 mg/kg): 54%; % Mean decrease in Abeta 1-42 at 25 h post dosing compared to own baseline ([4]; single dose 0.31 mg/kg): 53%; % Mean decrease in Abeta 1-42 at 49 h post dosing compared to own baseline ([4]; single dose 0.31 mg/kg): NR (NR means % decrease < 20); % Mean decrease in Abeta 1-42 at 8 h post dosing compared to own baseline ([4]; single dose 1.25 mg/kg): 80%; % Mean decrease in Abeta 1-42 at 25 h post dosing compared to own baseline ([4]; single dose 1.25 mg/kg): 71%; % Mean decrease in Abeta 1-42 at 49 h post dosing compared to own baseline ([4]; single dose 1.25 mg/kg): 34%; EC50 Aβ42 ([4]; beagle dog, CSF Abeta 1-42 after single dose): 0.024 µg/mL; Observations ([5]; one female dog dosed at 1.25 mg/kg, single dose, 8 h post dosing): slight diarrhea
3 | C[C@]1(C#N)C[C@H]2[C@H](C(F)(F)F)OC[C@@]2(c2cc(NC(=O)c3ncc(Cl)cn3)ccc2F)N=C1N [8d] | 5.37 | 5.1 | 5.08 | – | – | –
4 | COc1cnc(C(=O)Nc2ccc(F)c([C@@]34CO[C@@H](C)[C@@H]3C[C@@](C)(S(C)(=O)=O)C(N)=N4)c2)cn1 (single isomer, unassigned) [13b] | 5.48 | 5.75 | <5 | – | – | –
5 | C[C@H]1OC[C@]2(c3cc(NC(=O)c4ccc(C#N)cn4)ccc3F)N=C(N)[C@@](C)(C#N)C[C@H]12 [6b] | 7.89 | 8.12 | 6.68 | – | – | –
6 | CC1OCC2(c3cc(NC(=O)c4ccc(C#N)cn4)cc(F)c3F)N=C(N)C(C)(C#N)CC12 (single isomer, unassigned) [33a] | – | 5.14 | – | 7590 | > 10000 | –
7 | CC1OCC2(c3cc(NC(=O)c4cnc(OCF)cn4)cc(F)c3F)N=C(N)C(C)(C#N)CC12 (single isomer, unassigned) [31a] | – | 7.15 | – | 66.1 | 2400 | –
8 | C[C@@H]1OC[C@@]2(c3cc(NC(=O)c4ccc(C#N)cn4)ccc3F)N=C(N)[C@](C)(C#N)C[C@@H]12 [6c] | 5.12 | 5.14 | <5 | – | – | –

Further lines, with some results ahead:

Row | Biochemical FRET based assay pIC50 [1] | Cellular αLisa assay in SKNBE2 cells Abeta 42 pIC50 [2] | Biochemical FRET based assay pIC50 [3] | IC50 [1] [nM] | IC50 [3] [nM] | SMILES | other results
9 | – | – | – | 2.24 | 81.3 | CC(F)(F)[C@H]1OC[C@]2(c3cc(NC(=O)c4cnc(OCF)cn4)ccc3F)N=C(N)[C@](C)(C#N)C[C@H]12 [compound 14] | IC50 ([2]; Homo sapiens, SKNBE2, 18 h, read-out: Cellular αLisa assay in SKNBE2 cells Abeta 42 pIC50 (converted)): 6.92 nM; % Mean decrease in Abeta 1-42 at 8 h post dosing compared to own baseline ([4]; single dose 0.63 mg/kg): 32%; % Mean decrease in Abeta 1-42 at 25 h post dosing compared to own baseline ([4]; single dose 0.63 mg/kg): NR (NR means % decrease < 20); % Mean decrease in Abeta 1-42 at 49 h post dosing compared to own baseline ([4]; single dose 0.63 mg/kg): NR (NR means % decrease < 20); Observations ([5]; one dog, 0.63 mg/kg single dose, 2 h post dosing): emesis
10 | – | 5.78 | – | 708 | 8910 | CC1OCC2(c3cc(NC(=O)c4ccc(C#N)cn4)cc(F)c3F)N=C(N)C(C)(C#N)CC12 (single isomer, unassigned) [33d] | –
11 | 5.76 | 5.8 | <5 | – | – | C[C@@H]1OC[C@@]2(c3cc(NC(=O)c4cnc(OCF)cn4)ccc3F)N=C(N)[C@@](C)(C#N)C[C@@H]12 (single isomer, unassigned) [9c] | –
12 | 7.89 | 8.47 | 7.21 | – | – | COc1cnc(C(=O)Nc2ccc(F)c([C@]34CO[C@H](C)[C@H]3C[C@@](C)(C#N)C(N)=N4)c2)cn1 [1b] | –
